Assay: Solubility of piroxicam in PEG400 (HPLC)
Format: physicochemical
Details: piroxicam in PEG400, excess stirred 2 weeks at room temperature, HPLC analysis

solubility: 1.6%
Structure (SMILES): CN1C(C(=O)Nc2ccccn2)=C(O)c2ccccc2S1(=O)=O [piroxicam]
